In publication PMC10827914 (Cellular and Molecular Life Sciences: CMLS, 2024):

Tested on: membrane CD13 expressed by HUVEC
Assay: Competitive binding of anti-CD13 mAb WM15 to HUVEC by flow cytometry
Parameters: species or system human
Protocol: HUVEC were seeded in 96-well U-bottom polystyrene microtiter plates at a density of 2 × 10^5 cells in 100 µL DPBS supplemented with 5% normal human serum (NHS) and mixed with a mixture of peptide G4 ranging from 0 to 10 µM and mAb WM15 (0 or 0.13 nM). The chromogranin A429-439 peptide fragment (CgA429-439) was used instead of G4 as a control. After 1 h of incubation at 4 °C, the cells were washed and resuspended in 100 µL of DPBS containing 5% NHS and 1 µg/mL of FITC-labeled goat anti-mouse IgG secondary antibody. Cells were subsequently incubated for 1 h at 4 °C, washed, and analyzed by flow cytometry. All flow cytometry data were collected on a CytoFLEX S flow cytometer (Beckman Coulter) and analyzed using FlowJo software 10 (BD BioScience).
Fig. 2 G4 recognizes soluble forms of CD13, with higher affinity and selectivity than bestatin, and the membrane forms expressed on the surface of HUVEC cells. A Inhibitory effects of G4 and bestatin on the enzymatic activities of different aminopeptidases (rCD13, APA, and APB). Various amounts of G4 or bestatin were incubated with rCD13 (0.2 µg/mL in 60 mM Tris–HCl pH 7.4), APA (0.2 µg/mL in 60 mM Tris–HCl pH 7.4, 50 mM calcium chloride, 200 mM sodium chloride) or APB (0.2 µg/mL in 60 mM Tris–HCl pH 7.4, 100 mM potassium chloride) and the corresponding substrates at 0.1 mM (L-alanine-7-amido-4-methylcoumarin for rCD13, L-glutamic acid γ-(7-amido-4-methylcoumarin) for APA, and L-arginine-7-amido-4-methylcoumarin for APB). The mixtures were incubated for 30 min at 37 °C, and the cleavage of each substrate was monitored by measuring the fluorescence of methylcoumarin (λex 341 nm; λem 441 nm) using an Infinite 200 PRO plate reader (Tecan). Three independent experiments were performed for each enzyme. […] Substrate cleavage by sCD13 dissociated from mAb WM15 was then monitored by measuring the absorbance at 405 nm in each well using a plate reader (Bio-Rad). […] After incubation for 60 min at 4 °C, the cells were washed and analyzed by flow cytometry. Data are expressed as the percentage of counts vs. fluorescence intensity units […]

VGCARRYCS-TNF [G4-TNF, recombinant murine TNF fused to the C-terminus of G4]
Competition of mAb WM15 binding to HUVEC (in words) (Fig. 4C and 4D): competed the binding of mAb WM15 to endothelial cells
Competition of mAb WM15 binding to HUVEC (in words) (competitor 5 µM, mAb WM15 0.13 nM, 60 min, 4 °C, Supplementary Fig. S4D): competed with the binding of mAb WM15 (anti-CD13) to HUVEC to an extent similar to that observed with G4
